Source: the NIST ThermoML archive (doi:10.1016/j.jct.2016.07.005)

How the values were obtained:
[1] = 100 kPa, Liquid; for viscosity: Concentric cylinders viscometry; for mass density: Vibrating tube method
[2] = refractive index (Na D-line) (dimensionless); settings: 100 kPa, Liquid, Standard Abbe refractometry
[3] = refractive index (Na D-line) (dimensionless); xn = mol fraction of the nth substance listed; settings: 100 kPa, Liquid, Standard Abbe refractometry, x2 = 0
[4] = xn = mol fraction of the nth substance listed; settings: 100 kPa, Liquid, x2 = 0; for viscosity: Concentric cylinders viscometry; for mass density: Vibrating tube method

CC(O)CO (centres undefined) [1,2-propanediol]
Settings	mass density, [1] [kg/m3]	refractive index, [2]	viscosity, [1] [mPa·s]
293.15 K	1036.3	1.43279	59.56
298.15 K	1032.62	1.43111	44.14
303.15 K	1028.91	1.42941	33.25
308.15 K	1025.16	1.42773	25.5
313.15 K	1021.39	1.42601	19.78
318.15 K	1017.57	1.42429	15.76
323.15 K	1013.72	1.42257	12.75

CC(O)CO (centres undefined) [1,2-propanediol] + CN1CCC[C@H]1c1cccnc1
Settings	mass density, [4] [kg/m3]	refractive index, [3]	viscosity, [4] [mPa·s]
293.15 K	1036.3	1.43279	59.56
298.15 K	1032.62	1.43111	44.14
303.15 K	1028.91	1.42941	33.25
308.15 K	1025.16	1.42773	25.5
313.15 K	1021.39	1.42601	19.78
318.15 K	1017.57	1.42429	15.76
323.15 K	1013.72	1.42257	12.75

CN1CCC[C@H]1c1cccnc1 [(-)-3-(N-methylpyrrolidino)pyridine]
Settings	mass density, [1] [kg/m3]	refractive index, [2]	viscosity, [1] [mPa·s]
293.15 K	1010.23	1.52665	4.694
298.15 K	1006.16	1.52439	4.048
303.15 K	1002.1	1.52214	3.518
308.15 K	998.055	1.51988	3.088
313.15 K	994.014	1.5179	2.758
318.15 K	989.984	1.51592	2.411
323.15 K	985.962	1.51373	2.195

CCCCO [butan-1-ol]
Settings	mass density, [1] [kg/m3]	refractive index, [2]	viscosity, [1] [mPa·s]
293.15 K	809.819	1.39922	2.914
298.15 K	805.995	1.39719	2.564
303.15 K	802.148	1.39517	2.258
308.15 K	798.276	1.39311	1.994
313.15 K	794.372	1.39102	1.777
318.15 K	790.429	1.38896	1.589
323.15 K	786.444	1.38688	1.372
